Patent US20260207602A1, “EGFR INHIBITORS” (Blueprint Medicines Corporation, priority 2022, published 2026)

Experiments:
EGFR (d746-750) = target: T1, EGFR (d746-750) (Homo sapiens, UniProt P00533, DEL746-750); test: Biochemical EGFR inhibition assay (Caliper mobility shift), EGFR (d746-750); settings: biochemical Caliper mobility shift assay, EGFR Exon 19-del enzyme; read-out: Enz EGFR Exon 19-del IC50
T1 construct: purchased SignalChem E10-122JG
How it was run: (§1)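 Peptide phosphorylation by the mutant enzyme is followed at 25 °C with either 1.0 mM ATP or ATP at Km, in HEPES pH 7.5 containing 0.015% Brij-35 and 1.0% DMSO. After 10–20% substrate turnover, 35 mM EDTA ends the reaction and mobility shift quantifies product.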

EGFR L858R = target: T2, EGFR L858R (Homo sapiens, UniProt P00533, L858R); test: Biochemical EGFR inhibition assay (Caliper mobility shift), EGFR L858R; settings: biochemical Caliper mobility shift assay, EGFR L858R enzyme; read-out: Enz EGFR L858R IC50
T2 construct: purchased SignalChem E10-122BG
T2 sequence (P00533 25-1210 L858R): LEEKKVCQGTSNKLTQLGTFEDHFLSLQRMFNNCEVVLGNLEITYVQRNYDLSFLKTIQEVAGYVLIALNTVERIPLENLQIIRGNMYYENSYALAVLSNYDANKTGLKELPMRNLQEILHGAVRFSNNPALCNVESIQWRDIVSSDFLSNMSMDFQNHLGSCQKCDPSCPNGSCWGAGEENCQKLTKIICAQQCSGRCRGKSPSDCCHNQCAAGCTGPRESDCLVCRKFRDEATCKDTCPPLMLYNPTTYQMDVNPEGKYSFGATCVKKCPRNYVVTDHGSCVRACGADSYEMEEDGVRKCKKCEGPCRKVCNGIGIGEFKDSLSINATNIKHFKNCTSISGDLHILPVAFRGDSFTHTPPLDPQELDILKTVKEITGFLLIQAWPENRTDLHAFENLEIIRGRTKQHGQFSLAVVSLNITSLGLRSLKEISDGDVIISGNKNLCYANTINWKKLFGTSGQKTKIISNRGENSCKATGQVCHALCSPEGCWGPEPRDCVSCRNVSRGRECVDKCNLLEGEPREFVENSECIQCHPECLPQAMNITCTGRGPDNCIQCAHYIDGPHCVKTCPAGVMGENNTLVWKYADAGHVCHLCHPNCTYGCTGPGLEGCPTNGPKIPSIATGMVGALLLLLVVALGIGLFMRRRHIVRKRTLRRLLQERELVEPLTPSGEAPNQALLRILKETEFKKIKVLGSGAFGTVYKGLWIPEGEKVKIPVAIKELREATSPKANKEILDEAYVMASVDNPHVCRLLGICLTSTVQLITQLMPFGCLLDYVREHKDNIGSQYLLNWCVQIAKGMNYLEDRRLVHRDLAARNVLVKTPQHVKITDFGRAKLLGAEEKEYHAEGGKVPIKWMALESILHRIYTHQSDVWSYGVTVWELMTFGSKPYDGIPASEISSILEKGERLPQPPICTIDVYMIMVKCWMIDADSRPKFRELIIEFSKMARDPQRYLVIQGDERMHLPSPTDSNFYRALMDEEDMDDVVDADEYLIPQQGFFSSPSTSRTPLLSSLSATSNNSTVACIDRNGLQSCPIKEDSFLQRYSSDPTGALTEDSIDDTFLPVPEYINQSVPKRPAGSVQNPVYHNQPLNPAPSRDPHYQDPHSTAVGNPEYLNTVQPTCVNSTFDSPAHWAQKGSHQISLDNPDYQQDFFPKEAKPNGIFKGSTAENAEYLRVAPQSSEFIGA
How it was run: as §1

[1] = target: intracellular phosphorylation of EGFR (Tyr1068) in PC-9 cells (Homo sapiens, UniProt P00533, DEL746-750); test: PC-9 pEGFR AlphaLISA assay; assay type: cell-based; settings: 4 hours incubation, read-out: Phos EGFR PC9 IC50
Sequence of intracellular phosphorylation of EGFR (Tyr1068) in PC-9 cells (P00533 with tags, fused parts or gaps DEL746-750): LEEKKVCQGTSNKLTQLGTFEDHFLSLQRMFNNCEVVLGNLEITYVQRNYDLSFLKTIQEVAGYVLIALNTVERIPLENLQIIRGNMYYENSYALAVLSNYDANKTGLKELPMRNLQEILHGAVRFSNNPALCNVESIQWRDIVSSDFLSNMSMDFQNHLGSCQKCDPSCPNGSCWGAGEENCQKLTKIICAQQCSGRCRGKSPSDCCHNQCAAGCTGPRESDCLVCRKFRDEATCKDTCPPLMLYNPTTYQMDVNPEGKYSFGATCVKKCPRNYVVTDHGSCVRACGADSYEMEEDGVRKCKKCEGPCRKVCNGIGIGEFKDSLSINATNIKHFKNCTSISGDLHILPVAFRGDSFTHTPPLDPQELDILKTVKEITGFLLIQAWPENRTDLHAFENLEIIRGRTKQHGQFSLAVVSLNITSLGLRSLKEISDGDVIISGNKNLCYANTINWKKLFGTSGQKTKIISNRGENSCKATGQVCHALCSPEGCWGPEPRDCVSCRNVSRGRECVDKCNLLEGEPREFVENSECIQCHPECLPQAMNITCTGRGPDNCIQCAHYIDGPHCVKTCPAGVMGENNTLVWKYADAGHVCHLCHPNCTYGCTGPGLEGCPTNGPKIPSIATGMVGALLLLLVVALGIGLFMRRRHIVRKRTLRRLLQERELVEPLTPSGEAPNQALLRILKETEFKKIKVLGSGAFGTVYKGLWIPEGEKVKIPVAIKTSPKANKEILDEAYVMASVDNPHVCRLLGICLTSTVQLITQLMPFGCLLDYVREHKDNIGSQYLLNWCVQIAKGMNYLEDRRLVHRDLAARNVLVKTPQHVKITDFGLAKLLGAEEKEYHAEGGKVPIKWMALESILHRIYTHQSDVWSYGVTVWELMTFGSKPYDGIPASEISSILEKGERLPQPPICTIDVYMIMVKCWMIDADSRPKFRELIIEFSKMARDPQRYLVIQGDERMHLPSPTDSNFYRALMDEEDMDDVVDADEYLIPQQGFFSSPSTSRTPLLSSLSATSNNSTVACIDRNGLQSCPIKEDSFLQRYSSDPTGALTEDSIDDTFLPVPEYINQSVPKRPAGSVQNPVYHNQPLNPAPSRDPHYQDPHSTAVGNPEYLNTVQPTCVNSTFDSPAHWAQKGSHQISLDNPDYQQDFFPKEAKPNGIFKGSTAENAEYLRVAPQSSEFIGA
How it was run: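 PC-9 cells (EGFR del746-750) in phenol-free DMEM/10% FBS, adhered overnight, then exposed to 10-point 4-fold compound dilutions for 4 h at 37 °C. Lysates assayed for pEGFR Tyr1068 by AlphaLISA SureFire Ultra; IC50 from percent pEGFR inhibition vs log concentration.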

T1 sequence (P00533 with tags, fused parts or gaps DEL746-750 limits assumed): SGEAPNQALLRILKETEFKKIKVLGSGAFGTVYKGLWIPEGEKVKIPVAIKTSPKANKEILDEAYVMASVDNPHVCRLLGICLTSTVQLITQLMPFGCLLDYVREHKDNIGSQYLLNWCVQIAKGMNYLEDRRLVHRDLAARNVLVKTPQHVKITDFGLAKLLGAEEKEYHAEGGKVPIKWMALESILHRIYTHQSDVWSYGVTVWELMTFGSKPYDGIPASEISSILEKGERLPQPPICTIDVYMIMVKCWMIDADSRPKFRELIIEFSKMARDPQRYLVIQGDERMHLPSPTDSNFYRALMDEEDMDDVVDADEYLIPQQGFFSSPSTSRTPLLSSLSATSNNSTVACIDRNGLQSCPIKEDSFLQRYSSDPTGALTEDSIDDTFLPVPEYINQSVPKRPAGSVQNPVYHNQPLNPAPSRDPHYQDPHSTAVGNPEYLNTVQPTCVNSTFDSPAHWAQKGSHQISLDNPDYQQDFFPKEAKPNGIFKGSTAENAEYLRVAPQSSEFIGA

Compound | IC50 (EGFR (d746-750)) [nM] | IC50 (EGFR L858R) [nM] | IC50 [1] [nM]
CC(Oc1cc(-c2cnn(C)c2)cc2ncnc(Nc3ccc4ncsc4c3F)c12)C(=O)N1CCOCC1 (stereo not drawn) [Example 281, 2-((4-((7-fluorobenzo[d]thiazol-6-yl)amino)-7-(1-methyl-1H-pyrazol-4-yl)quinazolin-5-yl)oxy)-1-morpholinopropan-1-one] | ≤ 10 | ≤ 10 | ≤ 10
C[C@H](Oc1cc(-c2cnn(C)c2)cc2ncnc(Nc3ccc4ncsc4c3)c12)C(=O)N1CCOCC1 [Example 284, (S)-2-((4-(benzo[d]thiazol-6-ylamino)-7-(1-methyl-1H-pyrazol-4-yl)quinazolin-5-yl)oxy)-1-morpholinopropan-1-one] | ≤ 10 | ≤ 10 | ≤ 10
C[C@@H](Oc1cc(-c2cnn(C)c2)cc2ncnc(Nc3ccc4ncsc4c3)c12)C(=O)N1CCOCC1 [Example 285, (R)-2-((4-(benzo[d]thiazol-6-ylamino)-7-(1-methyl-1H-pyrazol-4-yl)quinazolin-5-yl)oxy)-1-morpholinopropan-1-one] | ≤ 10 | ≤ 10 | ≤ 10
Cn1cc(-c2cc(OC(C)(C)C(=O)N3CCOCC3)c3c(Nc4ccc5ncsc5c4)ncnc3c2)cn1 [Example 286, 2-((4-(benzo[d]thiazol-6-ylamino)-7-(1-methyl-1H-pyrazol-4-yl)quinazolin-5-yl)oxy)-2-methyl-1-morpholinopropan-1-one] | ≤ 10 | 10.1 to 50 | 10.1 to 50
CC(Oc1cc(N2CCN(C)C3CC32)cc2ncnc(Nc3ccc4ncsc4c3)c12)C1COC1 [Example 300, N-(7-((1R,6S)-5-methyl-2,5-diazabicyclo[4.1.0]heptan-2-yl)-5-((R)-1-(oxetan-3-yl)ethoxy)quinazolin-4-yl)benzo[d]thiazol-6-amine, OR N-(7-((1S,6R)-5-methyl-2,5-diazabicyclo[4.1.0]heptan-2-yl)-5-((R)-1-(oxetan-3-yl)ethoxy)quinazolin-4-yl)benzo[d]thiazol-6-amine] | ≤ 10 | 10.1 to 50 | ≤ 10
COc1nn(C)cc1-c1cc(OC2CCN(C3COC3)CC2)c2c(Nc3ccc4ncsc4c3)ncnc2c1 [Example 306, N-(7-(3-methoxy-1-methyl-1H-pyrazol-4-yl)-5-((1-(oxetan-3-yl)piperidin-4-yl)oxy)quinazolin-4-yl)benzo[d]thiazol-6-amine] | ≤ 10 | ≤ 10 | ≤ 10
Cn1cc(-c2cc(OC3CCN(C4COC4)CC3)c3c(Nc4ccc5ncsc5c4F)ncnc3c2)cn1 [Example 315, 7-fluoro-N-(7-(1-methyl-1H-pyrazol-4-yl)-5-((1-(oxetan-3-yl)piperidin-4-yl)oxy)quinazolin-4-yl)benzo[d]thiazol-6-amine] | ≤ 10 | ≤ 10 | ≤ 10
COc1cn(C)nc1-c1cc(OC2CCN(C)CC2)c2c(Nc3ccc4ncsc4c3F)ncnc2c1 [Example 319, 7-fluoro-N-(7-(4-methoxy-1-methyl-1H-pyrazol-3-yl)-5-((1-methylpiperidin-4-yl)oxy)quinazolin-4-yl)benzo[d]thiazol-6-amine] | ≤ 10 | 10.1 to 50 | ≤ 10
COc1nn(C)cc1-c1cc(OC2CCN(C)CC2)c2c(Nc3ccc4ncsc4c3F)ncnc2c1 [Example 320, 7-fluoro-N-(7-(3-methoxy-1-methyl-1H-pyrazol-4-yl)-5-((1-methylpiperidin-4-yl)oxy)quinazolin-4-yl)benzo[d]thiazol-6-amine] | ≤ 10 | ≤ 10 | 10.1 to 50
Cn1cc(-c2cc(O[C@@H]3CCNC[C@H]3F)c3c(Nc4ccc5ncsc5c4F)ncnc3c2)cn1 [Example 348, 7-fluoro-N-(5-(((3R,4R)-3-fluoropiperidin-4-yl)oxy)-7-(1-methyl-1H-pyrazol-4-yl)quinazolin-4-yl)benzo[d]thiazol-6-amine] | ≤ 10 | ≤ 10 | ≤ 10
CN1CC[C@@H](Oc2cc(-c3cnn(C)c3)cc3ncnc(Nc4ccc5ncsc5c4F)c23)[C@H](F)C1 [Example 349, 7-fluoro-N-(5-(((3R,4R)-3-fluoro-1-methylpiperidin-4-yl)oxy)-7-(1-methyl-1H-pyrazol-4-yl)quinazolin-4-yl)benzo[d]thiazol-6-amine] | ≤ 10 | ≤ 10 | ≤ 10
COc1nn(C)cc1-c1cc(O[C@@H]2CCNC[C@H]2F)c2c(Nc3ccc4ncsc4c3F)ncnc2c1 [Example 350, 7-fluoro-N-(5-(((3R,4R)-3-fluoropiperidin-4-yl)oxy)-7-(3-methoxy-1-methyl-1H-pyrazol-4-yl)quinazolin-4-yl)benzo[d]thiazol-6-amine] | ≤ 10 | ≤ 10 | ≤ 10

The remaining lines, values ahead:

IC50 (EGFR (d746-750)) [nM] | IC50 (EGFR L858R) [nM] | IC50 [1] [nM] | Compound
≤ 10 | ≤ 10 | ≤ 10 | COCCN1CCC(Oc2cc(-c3cn(C)nc3OC)cc3ncnc(Nc4ccc5ncsc5c4)c23)CC1 [Example 305, N-(7-(3-methoxy-1-methyl-1H-pyrazol-4-yl)-5-((1-(2-methoxyethyl)piperidin-4-yl)oxy)quinazolin-4-yl)benzo[d]thiazol-6-amine]
≤ 10 | ≤ 10 | ≤ 10 | CCn1cc(-c2cc(OC3CCN(C4COC4)CC3)c3c(Nc4ccc5ncsc5c4)ncnc3c2)cn1 [Example 307, N-(7-(1-ethyl-1H-pyrazol-4-yl)-5-((1-(oxetan-3-yl)piperidin-4-yl)oxy)quinazolin-4-yl)benzo[d]thiazol-6-amine]
≤ 10 | 10.1 to 50 | 10.1 to 50 | COCCN1CCC(Oc2cc(-c3nn(C)cc3OC)cc3ncnc(Nc4ccc5ncsc5c4)c23)CC1 [Example 308, N-(7-(4-methoxy-1-methyl-1H-pyrazol-3-yl)-5-((1-(2-methoxyethyl)piperidin-4-yl)oxy)quinazolin-4-yl)benzo[d]thiazol-6-amine]
≤ 10 | ≤ 10 | ≤ 10 | CCN1CCC(Oc2cc(-c3cnn(C)c3)cc3ncnc(Nc4ccc5ncsc5c4)c23)CC1 [Example 309, N-(5-((1-ethylpiperidin-4-yl)oxy)-7-(1-methyl-1H-pyrazol-4-yl)quinazolin-4-yl)benzo[d]thiazol-6-amine]
≤ 10 | ≤ 10 | ≤ 10 | Cn1cc(-c2cc(OC3CCN(CC(F)F)CC3)c3c(Nc4ccc5ncsc5c4F)ncnc3c2)cn1 [Example 310, N-(5-((1-(2,2-difluoroethyl)piperidin-4-yl)oxy)-7-(1-methyl-1H-pyrazol-4-yl)quinazolin-4-yl)-7-fluorobenzo[d]thiazol-6-amine]
≤ 10 | ≤ 10 | ≤ 10 | Cn1cc(-c2cc(OC3CCN(CC(F)F)CC3)c3c(Nc4ccc5ncsc5c4)ncnc3c2)cn1 [Example 311, N-(5-((1-(2,2-difluoroethyl)piperidin-4-yl)oxy)-7-(1-methyl-1H-pyrazol-4-yl)quinazolin-4-yl)benzo[d]thiazol-6-amine]
≤ 10 | ≤ 10 | 10.1 to 50 | Cn1cc(-c2cc(OC3CCN(CCO)CC3)c3c(Nc4ccc5ncsc5c4)ncnc3c2)cn1 [Example 312, 2-(4-((4-(benzo[d]thiazol-6-ylamino)-7-(1-methyl-1H-pyrazol-4-yl)quinazolin-5-yl)oxy)piperidin-1-yl)ethan-1-ol]
≤ 10 | ≤ 10 | 10.1 to 50 | COCCN1CCC(Oc2cc(-c3cnn(C)c3)cc3ncnc(Nc4ccc5ncsc5c4)c23)CC1 [Example 313, N-(5-((1-(2-methoxyethyl)piperidin-4-yl)oxy)-7-(1-methyl-1H-pyrazol-4-yl)quinazolin-4-yl)benzo[d]thiazol-6-amine]
≤ 10 | ≤ 10 | ≤ 10 | COc1cn(C)nc1-c1cc(OC2CCN(C)CC2)c2c(Nc3ccc4ncsc4c3)ncnc2c1 [Example 314, N-(7-(4-methoxy-1-methyl-1H-pyrazol-3-yl)-5-((1-methylpiperidin-4-yl)oxy)quinazolin-4-yl)benzo[d]thiazol-6-amine]
≤ 10 | 10.1 to 50 | 10.1 to 50 | COCCN1CCC(Oc2cc(-c3cnn(C)c3)cc3ncnc(Nc4ccc5ncsc5c4F)c23)CC1 [Example 316, 7-fluoro-N-(5-((1-(2-methoxyethyl)piperidin-4-yl)oxy)-7-(1-methyl-1H-pyrazol-4-yl)quinazolin-4-yl)benzo[d]thiazol-6-amine]
≤ 10 | ≤ 10 | ≤ 10 | Cn1cc(-c2cc(O[C@H]3CCCN(C4COC4)C3)c3c(Nc4ccc5ncsc5c4)ncnc3c2)cn1 [Example 317, (S)-N-(7-(1-methyl-1H-pyrazol-4-yl)-5-((1-(oxetan-3-yl)piperidin-3-yl)oxy)quinazolin-4-yl)benzo[d]thiazol-6-amine]
≤ 10 | ≤ 10 | ≤ 10 | Cn1cc(-c2cc(OC3CCN(C4COC4)CC3)c3c(Nc4ccc5ncsc5c4)ncnc3c2)cn1 [Example 318, N-(7-(1-methyl-1H-pyrazol-4-yl)-5-((1-(oxetan-3-yl)piperidin-4-yl)oxy)quinazolin-4-yl)benzo[d]thiazol-6-amine]
